Reference: PMC10821532, “Sex and Cross-Sex Testosterone Treatment Alters Gamma-Hydroxybutyrate Acid Toxicokinetics and Toxicodynamics in Rats” (Pharmaceutics, 2024)

Key:
MCT4 = system: MCT4; parameters: method as in PMID 19929853; details: cited from earlier work
[1] = GHB toxicokinetic study, i.v. bolus, plasma and urine up to 8 h, noncompartmental analysis; assay type: in vivo, Sprague Dawley rats; details: 1 mg/kg AR-C 155858 iv 5 min after 1500 mg/kg GHB iv vs GHB alone
Experimental: (§1) Male and female Sprague Dawley (SD) rats, ovariectomized (OVX) females, and castrated (CST) males were obtained from Charles River (Wilmington, MA, USA) at 8 weeks of age. The animals were housed under controlled temperature and humidity with an artificial 12 h light/dark cycle, and food and water were available ad libitum. The animals were acclimatized for at least one week before experiments. Hormone treatment was conducted by implanting OVX female and CST male rats subcutaneously with 60-day release pellets containing 7.5 mg testosterone or corresponding placebo pellets (Innovative Research of America) at 10 weeks of age. After 21 days of hormone exposure, rats were utilized in toxicokinetic studies. Age-matched male and female rats were used as control groups. Female rats in the estrus stage were selected for the study. Estrus cycle stages of female rats were monitored daily by vaginal lavage smear, as described in previously published literature. The Institutional Animal Care and Use Committee (IACUC) at the University of the Pacific approved all experiments.
(§2) Jugular vein cannulas were surgically implanted under anesthesia with ketamine/xylazine. Cannulas were flushed daily with heparinized saline to maintain patency. Rats were allowed a minimum of 72 h for recovery from surgery before the experiments were conducted. GHB was administered intravenously as a 1000 mg/kg i.v. bolus or 1500 mg/kg iv bolus with or without AR-C155858 (1 mg/kg i.v. bolus) via a jugular vein cannula to the animals at 13 weeks of age (N = 5–7 per group). Rats were dosed in metabolic cages with ad libitum access to water to allow for the concurrent collection of blood and urine samples for up to 8 h. GHB was administered as a 300 mg/mL solution in sterile water, and the time of administration was considered as time 0. AR-C155858 was administered as a 1 mg/mL solution in 10% cyclodextrin in normal saline 5 min after GHB administration. Blood samples (200 μL) were taken from the jugular vein cannula at different time points: 5, 10, 20, 30, 60, 90, 120, 180, 240, 270, 300, and 330 min for 1000 mg/kg and 10, 30, 60, 90, 120, 180, 240, 270, 300, 330, 360, and 390/480 min for 1500 mg/kg bolus with or without AR-C155858. Plasma samples were separated by centrifugation and stored at −20 °C. Urine samples were collected at 120, 240, and 360 min for 1000 mg/kg and 120, 240, and 390/480 min for 1500 mg/kg bolus with or without AR-C155858 post-dose; the total urine volume was determined, and the samples were stored at −20 °C.
GHB in plasma and urine were quantified using a validated liquid chromatography/tandem mass spectrometry (LC/MS/MS) assay that was described previously. Briefly, for the preparation of plasma standards and quality controls (QCs), 5 μL of GHB-d6 and 5 μL of standard stock solution or QC stock solution were added to 45 μL of blank plasma. For each unknown plasma sample, 5 μL of GHB-d6 was added to 50 μL of plasma. Protein precipitation was then performed by the addition of 800 μL of acetonitrile with 0.1% formic acid, followed by centrifugation at 10,000 rpm for 20 min. 750 μL of the supernatant was transferred to a clean disposable glass tube and evaporated using a MultiVap Nitrogen Evaporator (Organomation, Berlin, MA, USA) under a nitrogen stream. Dried samples were reconstituted in 250 μL of 95:5 double-distilled water—acetonitrile with 0.1% acetic acid. For urine standards and QCs, 25 μL of blank urine, 5 μL of standard or QC stock solution, 5 μL of GHB-d6, and 465 μL of double-distilled water were mixed. For unknown urine samples, 25 μL of the sample was added to 5 μL of GHB-d6 and 470 μL of double-distilled water. The same LC/MS/MS method was used for GHB plasma and urine analyses. LC/MS/MS equipment consisted of an Agilent 1200 series UPLC consisting of an online degasser, binary pump, and autosampler (Agilent Technologies, Santa Clara, CA, USA) connected to a Agilent 6460 Triple Quad Mass Spectrometer. […]

Sprague Dawley (SD) rats = assay: Sedative/hypnotic effect (sleep time, RRR-LRR) after i.v. GHB; assay type: in vivo
Experimental: as §2
The sedative/hypnotic effects (sleep time) were determined, as described in a previous publication. The sedative/hypnotic duration effect of GHB was determined as the difference between the offset of the sedative/hypnotic effect (RRR) and the onset of the sedative/hypnotic effect (LRR).

MCT2 = target: MCT2; parameters: method as in PMID 19929853; details: cited from earlier work
[2] = Plasma testosterone level after 21 days of testosterone pellet treatment (LC-MS); assay type: in vivo, Sprague Dawley rats; details: Sprague Dawley, rat, sc, 7.5 mg 60-day release testosterone pellet s.c.
Experimental: as §1
Testosterone plasma concentrations were quantified using a validated LC-MS assay, as described previously. […] The same LC/MS/MS equipment was used for quantification, as mentioned above. […]

SMILES | Inhibitory effect on MCT4 (MCT4) | Effect of AR-C 155858 on GHB fe [1] | Effect of AR-C 155858 on GHB metabolic clearance [1] | Effect of AR-C 155858 on GHB renal clearance [1] | Effect of AR-C155858 on GHB AUC ([1]; all animal groups) | Effect of AR-C155858 on GHB total clearance ([1]; all animal groups) | Effect of AR-C 155858 on GHB sleep time (Sprague Dawley (SD) rats; 1 mg/kg AR-C 155858 iv 5 min after 1500 mg/kg GHB iv vs GHB alone) | Sleep time after AR-C 155858 administration (Sprague Dawley (SD) rats; 1500 mg/kg GHB iv + 1 mg/kg AR-C 155858 iv 5 min after GHB, all populations) | Ki (MCT2) | concentration at 21 days ([2]; female, OVX rats) | concentration at 21 days ([2]; male, CST rats)
Cc1n[nH]c(C)c1Cc1sc2c(c1C(=O)N1C[C@H](O)CO1)c(=O)n(C)c(=O)n2CC(C)C [AR-C 155858, 6-[(3,5-Dimethyl-1H-pyrazol-4-yl)methyl]-5-[[(4S)-4-hydroxy-2-isoxazolidinyl]carbonyl]-3-methyl-1-(2-methylpropyl)thieno [2,3-d]pyrimidine-2,4(1H,3H)-dione] | no inhibitory effect on MCT4 | significantly increased fe in testosterone-treated animal groups | did not yield any statistically significant differences in metabolic clearance across all animal groups, except in intact males | statistically significant increase in renal clearance across all animal groups, except for intact males | lower AUC | higher total clearance | significant reduction in sleep time across all animal groups | 0 to 38 min | ~10 nM |  | 
C[C@]12CC[C@H]3[C@@H](CCC4=CC(=O)CC[C@@]43C)[C@@H]1CC[C@@H]2O [Testosterone, testosterone] |  |  |  |  |  |  |  |  |  | 6.22 ± 2.63 ng/mL | 5.44 ± 1.96 ng/mL
